Source: BindingDB's records for doi:10.1016/j.bmcl.2021.128008 (National Institute of Diabetes and Digestive and Kidney …, 2021)

Biological target: D(1B) dopamine receptor (Homo sapiens, UniProt P21918)
Test: Inhibition of dopamine D5 receptor (unknown origin)

D(1B) dopamine receptor, sequence (P21918 whole entry): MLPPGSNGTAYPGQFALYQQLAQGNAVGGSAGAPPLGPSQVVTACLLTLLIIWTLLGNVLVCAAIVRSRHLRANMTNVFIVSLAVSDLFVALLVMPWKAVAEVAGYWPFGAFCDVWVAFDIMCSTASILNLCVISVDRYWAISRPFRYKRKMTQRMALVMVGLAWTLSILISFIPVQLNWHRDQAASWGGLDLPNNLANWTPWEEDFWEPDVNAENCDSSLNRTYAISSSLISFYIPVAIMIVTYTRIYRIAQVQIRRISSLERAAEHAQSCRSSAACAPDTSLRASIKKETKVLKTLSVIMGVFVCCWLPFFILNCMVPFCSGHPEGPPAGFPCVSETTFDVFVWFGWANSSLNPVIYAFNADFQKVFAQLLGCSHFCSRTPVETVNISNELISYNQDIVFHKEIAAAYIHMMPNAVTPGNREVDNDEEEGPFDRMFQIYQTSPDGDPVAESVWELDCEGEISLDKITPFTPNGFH

Ki: 2100 nM
SMILES: CC(C)(C)C#Cc1ccc2c(c1)C=C([N+](=O)[O-])C(C(F)(F)F)O2 (stereo unspecified)
